≈ marks a conversion by molar mass, not a printed value.
Assays:
A. baumannii isolates = details: various A. baumannii isolates; ref 28 (Ibitoye and Ajiboye, 2019); cited from earlier work
[1] = test system: HUVEC-originated ECV304 cells; details: ref 72 (Kong et al.); cited from earlier work
293T cells = details: 24 h, tested range 0.78–200 μg/mL
Salmonella typhimurium = test system: Salmonella typhimurium; design: method as in ref 35 (Lou et al., 2012); details: ref 35 (Lou et al., 2012); cited from earlier work
Streptococcus pneumoniae = test system: Streptococcus pneumoniae; design: method as in ref 35 (Lou et al., 2012); details: ref 35 (Lou et al., 2012); cited from earlier work

In the case of `COc1cc(/C=C/C(=O)O)ccc1O` [FA, ferulic acid], the “Combination effect with quinolone-based antibiotics in words” value (A. baumannii isolates) is given as “synergistic effect”.

For `O=C(O)/C=C/c1ccc(O)cc1` [p-CA, p-coumaric acid], the “Concentration shown to induce cytotoxicity” value [1] is listed as 5000 µM, the “Concentrations with no significant effects on the cell viability” value [1] is listed as no more than 2500 µM and the IC50 value (293T cells) is listed as “indeterminate”. For the same compound, the MIC (Salmonella typhimurium) was 20 µg/mL (≈ 122 µM) and the MIC (Streptococcus pneumoniae) was 10 µg/mL (≈ 60.9 µM).
